≈ marks a conversion by molar mass, not a printed value. Where “and” joins values, the source holds several entries; their conditions need not be identical. Identical values can stand only once.
Assays:
HCT-8 [1] = test: Cytotoxicity against human HCT8 cells at 1.96 to 22.7 uM; assay type: cell-based; settings: hct-8, 22.7 µM
HCT-8 [2] = test: Cytotoxicity against human HCT8 cells assessed as effect on cell viability at 25.69 to 37.22 uM; assay type: cell-based; settings: hct-8, 37.22 µM
Cryptosporidium parvum = test: Antiparasitic activity against Cryptosporidium parvum infected in human […] cells after 46 hrs by immunofluorescence method; assay type: functional, organism-based
[3] = Cryptosporidium parvum, HCT-8, 46 h, read-out: IC50

Row | IC50 (Cryptosporidium parvum; [3]) [µg/mL] | IC50 (Cryptosporidium parvum; htc8) | Compound | Activity (HCT-8 [1]) | Activity (HCT-8 [2])
1 |  |  | CC(=O)Oc1ccc(C)cc1C(=O)Nc1ncc(Cl)s1 | Non-toxic | Toxic
2 | > 10 | Not Active | CCOC(=O)Cc1nnc(NC(=O)c2ccccc2OC(C)=O)s1 | Non-toxic | 
3 | > 10 | Not Active | Cc1cnc(NC(=O)c2ccccc2O)s1 | Non-toxic | 
4 | 6.1 (≈ 18.4 µM) | Not Active | O=C(Nc1ncc(-c2ccccc2Cl)s1)c1ccccc1O | Non-toxic | Toxic
5 | 5 (≈ 14.7 µM) | Not Active | CC(=O)Oc1ccccc1C(=O)Nc1ncc(S(C)(=O)=O)s1 | Non-toxic | 
6 |  |  | CC(=O)Oc1c(C)cccc1C(=O)Nc1ncc(Br)s1 | Non-toxic | Toxic
7 | 0.6 (≈ 2.15 µM) | 1 µg/mL (≈ 3.58 µM) | Cc1nc(NC(=O)c2ccccc2O)sc1[N+](=O)[O-] | Non-toxic | Toxic
8 | 5.5 (≈ 19.7 µM) | Not Active | COc1ccccc1C(=O)Nc1ncc([N+](=O)[O-])s1 | Non-toxic | 
9 |  |  | O=C(Nc1ncc(F)s1)c1ccccc1O | Non-toxic | Toxic
10 | 6.7 (≈ 25.5 µM) | Not Active | CCCc1cnc(NC(=O)c2ccccc2O)s1 | Non-toxic | 
11 |  |  | CC(=O)Oc1ccccc1C(=O)Nc1ncc([N+](=O)[O-])s1 [NITAZOXANIDE] | Non-toxic | 
12 |  | 0.4 µg/mL and 1 µg/mL | COc1cccc(C(=O)Nc2ncc([N+](=O)[O-])s2)c1O | Non-toxic | Toxic
13 |  | 2.6 µg/mL and 6 µg/mL | O=C(Nc1ncc(Cl)s1)c1ccccc1O | Non-toxic | Toxic
14 | > 10 | Not Active | O=C(Nc1nccs1)c1ccccc1O | Non-toxic | 
15 |  |  | Cc1cccc(C(=O)Nc2ncc(Br)s2)c1O | Non-toxic | Toxic
16 |  |  | Cc1ccc(O)c(C(=O)Nc2ncc(Cl)s2)c1 | Non-toxic | 
17 |  |  | Cc1cccc(C(=O)Nc2nc(C)c(Br)s2)c1O | Non-toxic | Toxic
18 |  | 0.4 µg/mL and 1 µg/mL | O=C(Nc1nc(-c2ccccc2)c(Br)s1)c1ccccc1O | Non-toxic | Toxic

Row | IC50 (Cryptosporidium parvum; [3]) [µg/mL] | IC50 (Cryptosporidium parvum; htc8) | Compound | Activity (HCT-8 [1]) | Activity (HCT-8 [2])
19 |  |  | CC(=O)Oc1cc(C)ccc1C(=O)Nc1ncc(Br)s1 | Non-toxic | 
20 | 2.3 (≈ 8.56 µM) | 4.6 µg/mL (≈ 17.1 µM) | Cc1cccc(C(=O)Nc2ncc(Cl)s2)c1O | Non-toxic | Toxic
21 | 5 (≈ 19 µM) | Not Active | CC(=O)Oc1ccccc1C(=O)Nc1nncs1 | Non-toxic | 
22 | > 10 | Not Active | O=C(Nc1ncc(C2CCCCC2)s1)c1ccccc1O | Non-toxic | 
23 |  |  | CC(=O)Oc1ccccc1C(=O)Nc1ncc(Br)s1 | Non-toxic | 
24 | 8.4 (≈ 24.1 µM) | Not Active | CCOC(=O)Cc1csc(NC(=O)c2ccccc2OC(C)=O)n1 | Non-toxic | 
25 | 4.6 (≈ 12.4 µM) | Not Active | COc1cccc(C(=O)Nc2ncc(Br)s2)c1OC(C)=O | Non-toxic | 
26 |  |  | CC(=O)Oc1ccccc1C(=O)Nc1nnc(C(F)(F)F)s1 | Non-toxic | 
27 |  |  | Cc1ccc(C(=O)Nc2ncc(Cl)s2)c(O)c1 | Non-toxic | Toxic
28 |  |  | Cc1cccc(C(=O)Nc2nc(-c3ccccc3)c(Br)s2)c1O | Non-toxic | Toxic
29 | 5.2 (≈ 16.6 µM) | 9.3 µg/mL (≈ 29.7 µM) | Cc1ccc(C(=O)Nc2ncc(Br)s2)c(O)c1 | Non-toxic | 
30 | 0.5 (≈ 1.56 µM) | 1 µg/mL (≈ 3.11 µM) | CC(=O)Oc1c(C)cccc1C(=O)Nc1ncc([N+](=O)[O-])s1 | Non-toxic | Toxic
31 | 6.9 (≈ 23.1 µM) | Not Active | CS(=O)(=O)c1cnc(NC(=O)c2ccccc2O)s1 | Non-toxic | 
32 | 6.4 (≈ 20.7 µM) | 9.2 µg/mL (≈ 29.7 µM) | CSc1nnc(NC(=O)c2ccccc2OC(C)=O)s1 | Non-toxic | Toxic
33 |  |  | O=C(Nc1ncc(Br)s1)c1ccccc1O | Non-toxic | 
34 |  | 1.7 µg/mL and 4.4 µg/mL | CC(=O)Oc1ccc(C)cc1C(=O)Nc1ncc(Br)s1 | Non-toxic | Toxic
35 |  | 2.1 µg/mL and 4.8 µg/mL | CC(=O)Oc1ccccc1C(=O)Nc1nc(C)c(Br)s1 | Non-toxic | 
36 |  |  | Cc1nc(NC(=O)c2ccccc2O)sc1Br | Non-toxic | Toxic
